Measurements taken from patent US20220089578A1, “COMPOUNDS AS GLP-1R AGONISTS” (Terns Pharmaceuticals, Inc., priority 2020, published 2022).
pEC50: −log10 of the molar value.

Molecular target: human GLP-1R (Homo sapiens, UniProt P43220)
Experiment: GLP-1R Cell Assay 1: cAMP Hunter CHO-K1 GLP1R Gs cell line, HitHunter cAMP assay
Type: cell-based
Settings: Table 2; cAMP Hunter CHO-K1 GLP1R Gs cells; percent activity normalized to Exendin-4
Experimental: GLP-1R mediated agonist activity was determined using the cAMP Hunter CHO-K1 GLP1R Gs cell line (DiscoverX, cat# 95-0062C2), a stable CHO-K1 derived cell lines overexpressing naturally Gs coupled wild-type human GLP-1R (accession number: NM_002062.3). GLP-1R agonism in this cell line was detected by measuring cellular cAMP levels using the HitHunter cAMP assay kit (cat# 90-0075SM2), a homogenous, gain-of-signal competitive immune assay based on Enzyme Fragment Complementation (EFC) technology. In this system cellular cAMP competes with exogenous labeled cAMP (ED-cAMP) for binding to an anti-cAMP antibody. […] The luminescent signal is directly proportional to the amount of cellular cAMP.
For compound testing, cells were seeded in a total volume of 20 μL in white walled, 384-well microplates and incubated at 37° C. prior to compound testing. Prior to compound addition, cell culture media was removed by aspiration and replaced with 15 pt reagent buffer (2:1 HBSS/10 mM HEPES: cAMP XS+Ab reagent). Compounds were dissolved in DSMO and serially diluted (3-fold) prior to final dilution to 4X in assay buffer. Samples (5 μL) were added to cells and incubated at 37° C. for […] prior to 1 hour incubation with 20 pt cAMP XS+ED/CL lysis reagent and 3 hour incubation with 20 μL cAMP XS+EA reagent at room temperature. Microplates were read on a PerkinElmer Envision instrument. Compound activity was analyzed using CBIS data analysis suite (ChemInnovation). Percent activity was calculated based on duplicate assay runs and normalized to the positive control Exendin-4, a GLP-1R peptide agonist, using the following formula: […]
The effective compound concentration resulting in 50% response (EC50) was determined by non-linear regression analysis of dose-response curves.

human GLP-1R, sequence (P43220 24-463): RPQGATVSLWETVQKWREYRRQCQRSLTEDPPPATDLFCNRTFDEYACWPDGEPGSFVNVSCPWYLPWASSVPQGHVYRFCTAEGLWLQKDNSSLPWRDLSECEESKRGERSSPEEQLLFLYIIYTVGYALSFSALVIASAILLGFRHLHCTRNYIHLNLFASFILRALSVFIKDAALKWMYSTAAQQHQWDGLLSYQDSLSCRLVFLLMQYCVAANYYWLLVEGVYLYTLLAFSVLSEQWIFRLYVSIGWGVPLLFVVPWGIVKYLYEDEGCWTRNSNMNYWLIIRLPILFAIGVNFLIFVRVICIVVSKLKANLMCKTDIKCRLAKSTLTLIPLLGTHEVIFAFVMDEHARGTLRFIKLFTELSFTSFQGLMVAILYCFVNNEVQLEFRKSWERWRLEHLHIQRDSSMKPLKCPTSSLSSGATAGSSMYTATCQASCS

| SMILES | pEC50 |
| --- | --- |
| O=C(O)c1ccc2nc(CN3CCC(c4cccc(OCc5nc6ccccc6s5)n4)CC3)n(C[C@@H]3CCO3)c2c1 [Compound 14, (S)-2-((4-(6-(benzo[d]thiazol-2-ylmethoxy)pyridin-2-yl)piperidin-1-yl)methyl)-1-(oxetan-2-ylmethyl)-1H-benzo[d]imidazole-6-carboxylic acid] | 9.61 |
| N#Cc1ccc(COc2cccc(N3CCC(Cc4nc5ccc(C(=O)O)cc5n4C[C@@H]4CCO4)CC3)n2)c(F)c1 [Compound 15, (S)-2-((1-(6-((4-cyano-2-fluorobenzyl)oxy)pyridin-2-yl)piperidin-4-yl)methyl)-1-(oxetan-2-ylmethyl)-1H-benzo[d]imidazole-6-carboxylic acid] | 9.51 |
| N#Cc1cnc(COc2cccc(N3CCN(Cc4nc5ccc(C(=O)O)cc5n4C[C@@H]4CCO4)CC3)n2)nc1 [Compound 16, (S)-2-((4-(6-((5-cyanopyrimidin-2-yl)methoxy)pyridin-2-yl)piperazin-1-yl)methyl)-1-(oxetan-2-ylmethyl)-1H-benzo[d]imidazole-6-carboxylic acid] | 8.03 |
| O=C(O)c1ccc2nc(CN3CC(=O)N(c4cccc(OCc5ccccc5)n4)CC3=O)n(C[C@@H]3CCO3)c2c1 [Compound 17, (S)-2-((4-(6-(benzyloxy)pyridin-2-yl)-2,5-dioxopiperazin-1-yl)methyl)-1-(oxetan-2-ylmethyl)-1H-benzo[d]imidazole-6-carboxylic acid] | 7.64 |
| O=C(O)c1ccc2nc(CN3CCC(O)(c4cccc(OCc5ccccc5)n4)CC3)n(C[C@@H]3CCO3)c2c1 [Compound 18, (S)-2-((4-(6-(benzyloxy)pyridin-2-yl)-4-hydroxypiperidin-1-yl)methyl)-1-(oxetan-2-ylmethyl)-1H-benzo[d]imidazole-6-carboxylic acid] | < 6.30 |
| O=C(O)c1ccc2nc(CN3CCN(c4cccc(OCc5ccccc5)n4)C(=O)C3)n(C[C@@H]3CCO3)c2c1 [Compound 19, (S)-2-((4-(6-(benzyloxy)pyridin-2-yl)-3-oxopiperazin-1-yl)methyl)-1-(oxetan-2-ylmethyl)-1H-benzo[d]imidazole-6-carboxylic acid] | 7.38 |
| Cc1cc(OCc2ccccc2)nn1C1CCN(Cc2nc3ccc(C(=O)O)cc3n2C[C@@H]2CCO2)CC1 [Compound 21, (S)-2-((4-(3-(benzyloxy)-5-methyl-1H-pyrazol-1-yl)piperidin-1-yl)methyl)-1-(oxetan-2-ylmethyl)-1H-benzo[d]imidazole-6-carboxylic acid] | 5.56 |
| O=C(O)c1ccc2nc(CN3CCC(n4ccc(OCc5ccccc5)n4)CC3)n(C[C@@H]3CCO3)c2c1 [Compound 22, (S)-2-((4-(3-(benzyloxy)-1H-pyrazol-1-yl)piperidin-1-yl)methyl)-1-(oxetan-2-ylmethyl)-1H-benzo[d]imidazole-6-carboxylic acid] | 5.43 |
| O=C(O)c1ccc2nc(CN3CCC(n4nc(OCc5ccccc5)c5c4CCCC5)CC3)n(C[C@@H]3CCO3)c2c1 [Compound 23, (S)-2-((4-(3-(benzyloxy)-4,5,6,7-tetrahydro-1H-indazol-1-yl)piperidin-1-yl)methyl)-1-(oxetan-2-ylmethyl)-1H-benzo[d]imidazole-6-carboxylic acid] | < 6.30 |
| Cc1cn(C2CCN(Cc3nc4ccc(C(=O)O)cc4n3C[C@@H]3CCO3)CC2)nc1OCc1ccccc1 [Compound 24, (S)-2-((4-(3-(benzyloxy)-4-methyl-1H-pyrazol-1-yl)piperidin-1-yl)methyl)-1-(oxetan-2-ylmethyl)-1H-benzo[d]imidazole-6-carboxylic acid] | 6.46 |
| N#Cc1ccc2c(c1)CN(c1ccn(C3CCN(Cc4nc5ccc(C(=O)O)cc5n4C[C@@H]4CCO4)CC3)n1)CC2 [Compound 25, (S)-2-((4-(3-(7-cyano-3,4-dihydroisoquinolin-2(1H)-yl)-1H-pyrazol-1-yl)piperidin-1-yl)methyl)-1-(oxetan-2-ylmethyl)-1H-benzo[d]imidazole-6-carboxylic acid] | < 6.30 |
| O=C(O)c1ccc2nc(CN3CCC(n4ccc(COc5ccccc5)n4)CC3)n(C[C@@H]3CCO3)c2c1 [Compound 26-P1, (S)-1-(oxetan-2-ylmethyl)-2-((4-(3-(phenoxymethyl)-1H-pyrazol-1-yl)piperidin-1-yl)methyl)-1H-benzo[d]imidazole-6-carboxylic acid] | < 6.30 |
| O=C(O)c1ccc2nc(CN3CCN(c4ccc5cnn(Cc6ccccc6)c5n4)CC3)n(C[C@@H]3CCO3)c2c1 [Compound 27, (S)-2-((4-(1-benzyl-1H-pyrazolo[3,4-b]pyridin-6-yl)piperazin-1-yl)methyl)-1-(oxetan-2-ylmethyl)-1H-benzo[d]imidazole-6-carboxylic acid] | 6.63 |
| O=C(O)c1ccc2nc(CN3CCN(c4ccc5ncn(Cc6ccccc6)c5n4)CC3)n(C[C@@H]3CCO3)c2c1 [Compound 28, (S)-2-((4-(3-benzyl-3H-imidazo[4,5-b]pyridin-5-yl)piperazin-1-yl)methyl)-1-(oxetan-2-ylmethyl)-1H-benzo[d]imidazole-6-carboxylic acid] | < 6.30 |
| N#Cc1ccc(Cn2ccc3ccc(N4CCN(Cc5nc6ccc(C(=O)O)cc6n5C[C@@H]5CCO5)CC4)nc32)c(F)c1 [Compound 29, (S)-2-((4-(1-(4-cyano-2-fluorobenzyl)-1H-pyrrolo[2,3-b]pyridin-6-yl)piperazin-1-yl)methyl)-1-(oxetan-2-ylmethyl)-1H-benzo[d]imidazole-6-carboxylic acid] | 7.79 |
| N#Cc1ccc(Cn2ncc3ccc(N4CCN(Cc5nc6ccc(C(=O)O)cc6n5C[C@@H]5CCO5)CC4)nc32)c(F)c1 [Compound 30, (S)-2-((4-(1-(4-cyano-2-fluorobenzyl)-1H-pyrazolo[3,4-b]pyridin-6-yl)piperazin-1-yl)methyl)-1-(oxetan-2-ylmethyl)-1H-benzo[d]imidazole-6-carboxylic acid] | 7.79 |
| O=C(O)c1ccc2nc(CN3CCN(c4ccc5cn(Cc6ccccc6)nc5n4)CC3)n(C[C@@H]3CCO3)c2c1 [Compound 31, (S)-2-((4-(2-benzyl-2H-pyrazolo[3,4-b]pyridin-6-yl)piperazin-1-yl)methyl)-1-(oxetan-2-ylmethyl)-1H-benzo[d]imidazole-6-carboxylic acid] | < 6.30 |
| O=C(O)c1ccc2nc(CN3CCN(c4nc(OCc5ccccc5)ns4)CC3)n(C[C@@H]3CCO3)c2c1 [Compound 32, (S)-2-((4-(3-(benzyloxy)-1,2,4-thiadiazol-5-yl)piperazin-1-yl)methyl)-1-(oxetan-2-ylmethyl)-1H-benzo[d]imidazole-6-carboxylic acid] | < 6.30 |
| O=C(O)c1ccc2nc(CN3CCN(c4cccc(OCC5CCOCC5)n4)CC3)n(C[C@@H]3CCO3)c2c1 [Compound 33, (S)-1-(oxetan-2-ylmethyl)-2-((4-(6-((tetrahydro-2H-pyran-4-yl)methoxy)pyridin-2-yl)piperazin-1-yl)methyl)-1H-benzo[d]imidazole-6-carboxylic acid] | < 6.30 |
| CC1(COc2cccc(N3CCN(Cc4nc5ccc(C(=O)O)cc5n4C[C@@H]4CCO4)CC3)n2)CC(F)(F)C1 [Compound 34, (S)-2-((4-(6-((3,3-difluoro-1-methylcyclobutyl)methoxy)pyridin-2-yl)piperazin-1-yl)methyl)-1-(oxetan-2-ylmethyl)-1H-benzo[d]imidazole-6-carboxylic acid] | 6.48 |
